# Assays:
# [1] = tested on: human CD3high, CD45dim, CD56+ cells; test: Human AVM-NKT cells in huNOG EXL mice; type: in vivo, mouse; details: oral HED 18-45 mg/kg; 24-48 hours later
# Method: huNOG EXL from Taconic have an average of 54% of CD45 cells positive for human CD45. Six huNOG EXL humanized immune system mice from 3 donors (n=2 per donor) are orally dosed with HED 18-45 mg/kg DSP. 24-48 hours later human CD3high, and/or human CD45dim, and/or human CD56+ cells can be observed to be about 0.2-3% of total splenocytes by flow cytometry.
# [2] = tested on: human CD3high, CD45dim, CD56+ cells; test: Human AVM-NKT cells in HuCD34-NCG mice; type: in vivo, mouse; details: oral HED 18-45 mg/kg; 24-48 hours later
# Description: The HuCD34-NCG mouse from Charles River is a study-ready mouse model with a human-like immune system, created by adoptive transfer of CD34+ stem cells. HuCD34-NCG mice are an ideal in vivo platform to evaluate the effectiveness of compounds modulating the human immune system. The lack, or late onset, of graft-versus-host disease (GvHD) in humanized mice make them ideal for long-term studies.
# NCG mice are humanized by adoptive transfer using human umbilical cord blood-derived CD34+ stem cells, following myeloablation treatment. NCG mice from 4 donors (n=2 per donor) are orally dosed with HED 18-45 mg/kg DSP. 24-48 hours later human CD3high, and/or human CD45dim, and/or human CD56+ cells can be observed to be about 0.2-3% of total splenocytes by flow cytometry.
# [3] = tested on: human CD3high, CD45dim, CD56+ cells; test: Human AVM-NKT cells in BRGSF humanized mice; type: in vivo, mouse; details: oral HED 18-45 mg/kg; 24-48 hours later
# Method: BRGSF humanized mice on a Balb/c background from Genoway generated by transplanting human umbilical cord blood CD34+ stem cells into irradiated mice that lack mouse B and T lymphocytes and NK cells but have a functional mouse complement system are orally dosed with HED 18-45 mg/kg DSP. 24-48 hours later human CD3high, and/or human CD45dim, and/or human CD56+ cells can be observed to be about 0.2-3% of total splenocytes by flow cytometry.
# [4] = tested on: CD3high, CD45dim, CD49b+ cells; test: Venetoclax pre-treatment before high dose DSP in female NOD mice; type: in vivo, mouse; details: 48 hours after HED 30 mg/kg DSP alone
# Method: Female NOD mice of 10 weeks of age are treated with 12.5 mg/kg up to 50 mg/kg venetoclax 6-18 hours before oral gavage of a HED 30 mg/kg DSP dose. […] CD3high, CD45dim, CD49b+ cells are reduced from—70 cells/microliter with DSP alone to—40 cells/microliter with 12.5 mg/kg venetoclax pretreatment, to—20 cells/microliter with 25 mg/kg venetoclax pretreatment, to—15 cells/microliter with 50 mg/kg venetoclax pretreatment. Venetoclax is a Bcl-2 inhibitor.
# AVM-NKT cells = test: Flow cytometry of osteoarthritis patients treated with dexamethasone; type: in vivo, human; details: 3-6 mg/kg; 48 hours post treatment; one of four patients
substance,measurement,setting,value
dexamethasone sodium phosphate [DSP],"human CD3high, and/or CD45dim, and/or CD56+ cells as share of total splenocytes",[1],0.2-3%
same,"human CD3high, and/or CD45dim, and/or CD56+ cells as share of total splenocytes",[2],0.2-3%
same,"human CD3high, and/or CD45dim, and/or CD56+ cells as share of total splenocytes",[3],0.2-3%
same,"CD3high, CD45dim, CD49b+ cells mobilized into the blood",[4],70 cells/microliter
same,"Cells corresponding to AVM-NKT cells (CD45 dim, CD56 very bright) in blood",AVM-NKT cells,identified
